# Test results published in patent US20060123492A1, “Methods of identifying modulators of NMUR2-mediated activity” (priority 2003, published 2006).
# What was measured:
# NMUR2 knock-out mice = experiment: Tail flick test, effect of morphine in NMUR2 knock-out mice; format: in vivo; settings: adult male NMUR2 knock-out mice, 30 minutes after injection
# Excerpt: (§1) Mice were gently held on a platform of an automated apparatus wrapped in a soft cloth. Their tails were exposed and extended in a straight line along a narrow groove. Once the tail was laying flat in the groove, the experimenter activated a high-intensity and heat producing narrow beam of light that was directed at a small spot in the tail. When the animal reached its pain threshold, a spinal reflex caused the tail to “flick” out of the light beam, automatically stopping a timer that started when the beam was activated. Each animal was tested 3 times, on different regions of the tail, and the median latency to “flick” was recorded as the nociceptive threshold. Experiments were performed blind with respect to the animals' genotype. The results are shown in FIGS. 1 and 2 in wild-type, heterozygous, and NMUR2 knock-out mice (FIG. 1) and for male and female mice (FIG. 2).
# (§2) Adult male mice were treated with the mu opiate receptor agonist morphine at either 0, 2.5, 5, or 10 mg/kg sub-cutaneously. At each dose, 4 wild type mice and 4 knock-outs were treated. Tail flick latencies were determined 30 minutes after injection of morphine or vehicle, with a maximum flick latency of 15 seconds allowed to prevent tissue damage. […] The difference between the tail flick latencies of the two genotypes at 2.5 mg/kg morphine could not be accounted for by the baseline difference in tail flick latencies normally observed between the wild types and the knock-outs, both because the difference in latency was larger, and because the enhancement of morphine analgesia is significant while the mild baseline analgesia observed in the NmUR2 knock-outs was not.
# wild type mice = experiment: Tail flick test, effect of morphine in wild type mice; format: in vivo; settings: adult male wild type mice, 30 minutes after injection
# Excerpt: as §1, §2
smiles,measurement,setting,value
CN1CC[C@]23c4c5ccc(O)c4O[C@H]2[C@@H](O)C=C[C@H]3[C@H]1C5 [morphine],analgesia (tail flick latency),NMUR2 knock-out mice; 2.5 mg/kg sub-cutaneously,augmented analgesia
same,tail flick latency,"NMUR2 knock-out mice; 2.5 mg/kg sub-cutaneously, maximum flick latency of 15 seconds allowed",15 s
same,analgesia (tail flick latency),NMUR2 knock-out mice; 5 mg/kg sub-cutaneously,maximal analgesia
same,analgesia (tail flick latency),NMUR2 knock-out mice; 10 mg/kg sub-cutaneously,maximal analgesia
same,analgesia (tail flick latency),wild type mice; 2.5 mg/kg sub-cutaneously,mild analgesia
same,analgesia (tail flick latency),wild type mice; 5 mg/kg sub-cutaneously,maximal analgesia
same,analgesia (tail flick latency),wild type mice; 10 mg/kg sub-cutaneously,maximal analgesia
